According to PMC12136037, “Type II kinase inhibitors that target Parkinson’s disease–associated LRRK2” (Science Advances, 2025):

Key:
Experiment in all cases: DSF 100 kinase selectivity screen;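 further: compound tested at 20 µM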
Assay type in all cases: binding
[1] = molecular target: T1, ~100 representative kinases (Homo sapiens, UniProt O00444); settings: protein PLK4; average of three replicates
T1 construct: Recombinant protein kinase domains with a concentration of 2 μM
T1 sequence (O00444 1-970): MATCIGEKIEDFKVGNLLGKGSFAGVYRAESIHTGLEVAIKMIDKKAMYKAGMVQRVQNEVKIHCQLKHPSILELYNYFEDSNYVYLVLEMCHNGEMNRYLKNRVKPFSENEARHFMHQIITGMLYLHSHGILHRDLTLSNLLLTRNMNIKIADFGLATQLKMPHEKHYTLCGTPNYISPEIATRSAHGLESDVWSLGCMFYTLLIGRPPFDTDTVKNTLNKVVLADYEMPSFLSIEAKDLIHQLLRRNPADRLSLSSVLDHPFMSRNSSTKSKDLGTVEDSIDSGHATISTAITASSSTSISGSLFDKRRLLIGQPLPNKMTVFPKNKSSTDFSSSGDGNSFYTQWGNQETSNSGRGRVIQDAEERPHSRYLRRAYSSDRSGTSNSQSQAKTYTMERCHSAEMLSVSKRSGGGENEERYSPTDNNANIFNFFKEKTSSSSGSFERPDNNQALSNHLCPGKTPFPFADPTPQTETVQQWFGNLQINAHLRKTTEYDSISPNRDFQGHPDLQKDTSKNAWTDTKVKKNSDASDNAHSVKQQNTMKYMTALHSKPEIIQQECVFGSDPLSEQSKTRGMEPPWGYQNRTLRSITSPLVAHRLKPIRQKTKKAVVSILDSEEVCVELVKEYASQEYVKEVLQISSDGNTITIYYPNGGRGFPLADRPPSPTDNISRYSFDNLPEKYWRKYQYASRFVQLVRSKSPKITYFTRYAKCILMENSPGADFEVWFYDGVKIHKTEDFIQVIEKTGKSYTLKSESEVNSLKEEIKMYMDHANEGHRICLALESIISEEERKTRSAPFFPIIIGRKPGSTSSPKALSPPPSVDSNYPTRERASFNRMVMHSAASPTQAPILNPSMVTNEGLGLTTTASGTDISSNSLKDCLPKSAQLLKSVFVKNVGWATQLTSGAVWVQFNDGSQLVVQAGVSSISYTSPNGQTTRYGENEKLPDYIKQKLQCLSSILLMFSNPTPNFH
In short: (§1)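 Each kinase domain, at 2 μM, is mixed with 20 μM test compound and SYPRO Orange in Hepes (20 mM, pH 7.5) with 500 mM NaCl. Temperature is then raised at 3°C/min and fluorescence-monitored unfolding yields the melting temperature change, ΔTm in degrees Celsius.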

[2] = molecular target: T2, ~100 representative kinases (Homo sapiens, UniProt P07332); settings: protein FESA; average of three replicates
T2 construct: Recombinant protein kinase domains with a concentration of 2 μM
T2 sequence (P07332 whole entry, the tested form may be a part): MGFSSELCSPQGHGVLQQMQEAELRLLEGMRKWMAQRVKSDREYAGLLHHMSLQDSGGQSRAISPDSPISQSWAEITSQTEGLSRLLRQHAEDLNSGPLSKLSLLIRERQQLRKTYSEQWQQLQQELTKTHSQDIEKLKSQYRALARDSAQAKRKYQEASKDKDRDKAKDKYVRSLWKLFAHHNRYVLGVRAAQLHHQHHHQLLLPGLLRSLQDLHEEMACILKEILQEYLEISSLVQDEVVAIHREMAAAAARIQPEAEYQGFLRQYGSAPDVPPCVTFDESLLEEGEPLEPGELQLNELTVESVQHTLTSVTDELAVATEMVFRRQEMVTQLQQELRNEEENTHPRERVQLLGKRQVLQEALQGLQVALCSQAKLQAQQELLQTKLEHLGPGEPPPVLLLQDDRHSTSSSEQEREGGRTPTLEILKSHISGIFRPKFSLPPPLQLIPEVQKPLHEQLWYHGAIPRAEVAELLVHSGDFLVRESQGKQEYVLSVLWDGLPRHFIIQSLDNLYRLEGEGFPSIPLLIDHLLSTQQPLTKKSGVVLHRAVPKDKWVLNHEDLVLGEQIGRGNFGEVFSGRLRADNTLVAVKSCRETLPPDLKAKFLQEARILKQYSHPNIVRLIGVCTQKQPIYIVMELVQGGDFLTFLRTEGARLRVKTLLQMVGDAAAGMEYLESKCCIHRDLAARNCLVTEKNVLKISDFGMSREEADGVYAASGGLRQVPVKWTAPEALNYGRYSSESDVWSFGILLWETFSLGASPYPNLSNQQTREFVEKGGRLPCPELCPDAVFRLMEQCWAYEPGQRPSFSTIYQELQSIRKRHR
In short: as §1

[3] = molecular target: T3, ~100 representative kinases (Homo sapiens, UniProt P28482); settings: protein MAPK1; average of three replicates
T3 construct: Recombinant protein kinase domains with a concentration of 2 μM
T3 sequence (P28482 whole entry, the tested form may be a part): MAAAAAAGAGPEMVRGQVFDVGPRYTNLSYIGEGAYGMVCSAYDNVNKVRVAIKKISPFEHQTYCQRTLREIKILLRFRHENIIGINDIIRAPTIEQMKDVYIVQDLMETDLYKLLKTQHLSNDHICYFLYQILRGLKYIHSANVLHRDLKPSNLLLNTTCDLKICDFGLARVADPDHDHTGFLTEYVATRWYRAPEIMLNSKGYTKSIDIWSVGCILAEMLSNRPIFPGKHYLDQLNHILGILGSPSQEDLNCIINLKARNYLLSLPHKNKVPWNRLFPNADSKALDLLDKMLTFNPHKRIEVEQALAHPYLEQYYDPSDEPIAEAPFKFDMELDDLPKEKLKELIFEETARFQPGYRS
In short: as §1

[4] = molecular target: T4, ~100 representative kinases (Homo sapiens, UniProt P29317); settings: Protein EPHA2; average of three replicates
T4 construct: Recombinant protein kinase domains with a concentration of 2 μM
T4 sequence (P29317 24-976): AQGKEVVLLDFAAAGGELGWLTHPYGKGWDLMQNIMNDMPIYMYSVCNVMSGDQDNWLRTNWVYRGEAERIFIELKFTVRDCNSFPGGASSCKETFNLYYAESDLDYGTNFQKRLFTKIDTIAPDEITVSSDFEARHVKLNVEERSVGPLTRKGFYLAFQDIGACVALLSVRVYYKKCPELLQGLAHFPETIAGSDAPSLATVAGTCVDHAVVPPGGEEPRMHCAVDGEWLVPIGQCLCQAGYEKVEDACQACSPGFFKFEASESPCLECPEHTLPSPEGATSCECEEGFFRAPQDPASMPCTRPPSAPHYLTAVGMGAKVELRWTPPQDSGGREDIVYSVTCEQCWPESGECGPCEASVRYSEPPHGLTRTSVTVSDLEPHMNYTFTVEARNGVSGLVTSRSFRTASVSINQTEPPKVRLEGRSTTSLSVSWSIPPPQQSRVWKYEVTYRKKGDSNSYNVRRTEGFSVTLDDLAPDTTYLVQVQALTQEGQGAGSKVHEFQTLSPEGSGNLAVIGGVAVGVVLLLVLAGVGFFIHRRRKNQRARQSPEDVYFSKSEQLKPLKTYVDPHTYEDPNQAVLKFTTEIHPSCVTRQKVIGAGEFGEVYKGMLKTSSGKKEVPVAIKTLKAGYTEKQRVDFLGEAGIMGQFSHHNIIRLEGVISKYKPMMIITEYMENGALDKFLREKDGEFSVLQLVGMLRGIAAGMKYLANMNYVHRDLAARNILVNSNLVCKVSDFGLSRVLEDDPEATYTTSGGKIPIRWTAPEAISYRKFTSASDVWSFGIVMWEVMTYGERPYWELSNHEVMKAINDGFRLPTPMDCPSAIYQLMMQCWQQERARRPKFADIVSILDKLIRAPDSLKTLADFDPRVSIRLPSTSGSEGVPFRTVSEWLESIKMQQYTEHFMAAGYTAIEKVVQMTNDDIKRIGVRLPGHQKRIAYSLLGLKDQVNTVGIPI
In short: as §1

[5] = molecular target: T5, ~100 representative kinases (Homo sapiens, UniProt P49841); settings: protein GSK3B; average of three replicates
T5 construct: Recombinant protein kinase domains with a concentration of 2 μM
T5 sequence (P49841 whole entry, the tested form may be a part): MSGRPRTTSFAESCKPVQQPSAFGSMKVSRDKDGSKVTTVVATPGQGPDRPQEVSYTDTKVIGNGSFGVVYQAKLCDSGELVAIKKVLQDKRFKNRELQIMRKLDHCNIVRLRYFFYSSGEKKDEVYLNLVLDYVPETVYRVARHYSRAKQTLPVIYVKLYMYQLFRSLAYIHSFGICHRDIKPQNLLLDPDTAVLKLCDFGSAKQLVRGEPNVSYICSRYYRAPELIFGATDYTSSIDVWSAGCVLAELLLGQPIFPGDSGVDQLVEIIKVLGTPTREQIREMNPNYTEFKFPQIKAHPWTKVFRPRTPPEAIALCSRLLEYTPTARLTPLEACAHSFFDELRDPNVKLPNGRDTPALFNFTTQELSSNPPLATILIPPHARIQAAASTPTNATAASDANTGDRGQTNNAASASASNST
In short: as §1

[6] = molecular target: T6, ~100 representative kinases (Homo sapiens, UniProt P54764); settings: Protein EPHA4; average of three replicates
T6 construct: Recombinant protein kinase domains with a concentration of 2 μM
T6 sequence (P54764 20-986): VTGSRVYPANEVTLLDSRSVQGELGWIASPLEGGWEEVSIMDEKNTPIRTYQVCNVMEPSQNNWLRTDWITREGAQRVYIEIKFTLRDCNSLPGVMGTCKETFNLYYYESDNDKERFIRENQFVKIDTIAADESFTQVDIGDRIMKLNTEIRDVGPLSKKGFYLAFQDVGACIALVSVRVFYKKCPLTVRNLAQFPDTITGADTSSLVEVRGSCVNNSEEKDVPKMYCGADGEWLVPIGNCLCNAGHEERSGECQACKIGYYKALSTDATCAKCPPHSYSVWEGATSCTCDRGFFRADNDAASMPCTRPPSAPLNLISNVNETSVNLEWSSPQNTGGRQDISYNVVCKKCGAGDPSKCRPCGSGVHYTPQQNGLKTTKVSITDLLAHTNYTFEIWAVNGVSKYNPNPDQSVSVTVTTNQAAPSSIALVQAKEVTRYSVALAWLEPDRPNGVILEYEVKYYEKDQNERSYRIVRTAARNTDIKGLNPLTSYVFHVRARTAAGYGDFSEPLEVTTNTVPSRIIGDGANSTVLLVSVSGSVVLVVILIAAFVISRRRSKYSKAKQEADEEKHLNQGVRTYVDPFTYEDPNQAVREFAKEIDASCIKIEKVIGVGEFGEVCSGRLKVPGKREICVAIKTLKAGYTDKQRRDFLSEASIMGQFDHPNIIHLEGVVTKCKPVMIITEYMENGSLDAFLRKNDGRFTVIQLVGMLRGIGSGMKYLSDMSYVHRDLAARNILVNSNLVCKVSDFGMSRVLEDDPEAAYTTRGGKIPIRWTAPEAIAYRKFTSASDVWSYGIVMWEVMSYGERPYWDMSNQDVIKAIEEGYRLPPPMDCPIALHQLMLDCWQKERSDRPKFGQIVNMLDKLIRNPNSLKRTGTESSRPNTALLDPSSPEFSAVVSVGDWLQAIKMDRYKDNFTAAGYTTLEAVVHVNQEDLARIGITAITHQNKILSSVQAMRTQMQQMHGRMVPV
In short: as §1

[7] = molecular target: T7, ~100 representative kinases (Homo sapiens, UniProt P55201); settings: Protein BRPF1; average of three replicates
T7 construct: Recombinant protein kinase domains with a concentration of 2 μM
T7 sequence (P55201 1-1214): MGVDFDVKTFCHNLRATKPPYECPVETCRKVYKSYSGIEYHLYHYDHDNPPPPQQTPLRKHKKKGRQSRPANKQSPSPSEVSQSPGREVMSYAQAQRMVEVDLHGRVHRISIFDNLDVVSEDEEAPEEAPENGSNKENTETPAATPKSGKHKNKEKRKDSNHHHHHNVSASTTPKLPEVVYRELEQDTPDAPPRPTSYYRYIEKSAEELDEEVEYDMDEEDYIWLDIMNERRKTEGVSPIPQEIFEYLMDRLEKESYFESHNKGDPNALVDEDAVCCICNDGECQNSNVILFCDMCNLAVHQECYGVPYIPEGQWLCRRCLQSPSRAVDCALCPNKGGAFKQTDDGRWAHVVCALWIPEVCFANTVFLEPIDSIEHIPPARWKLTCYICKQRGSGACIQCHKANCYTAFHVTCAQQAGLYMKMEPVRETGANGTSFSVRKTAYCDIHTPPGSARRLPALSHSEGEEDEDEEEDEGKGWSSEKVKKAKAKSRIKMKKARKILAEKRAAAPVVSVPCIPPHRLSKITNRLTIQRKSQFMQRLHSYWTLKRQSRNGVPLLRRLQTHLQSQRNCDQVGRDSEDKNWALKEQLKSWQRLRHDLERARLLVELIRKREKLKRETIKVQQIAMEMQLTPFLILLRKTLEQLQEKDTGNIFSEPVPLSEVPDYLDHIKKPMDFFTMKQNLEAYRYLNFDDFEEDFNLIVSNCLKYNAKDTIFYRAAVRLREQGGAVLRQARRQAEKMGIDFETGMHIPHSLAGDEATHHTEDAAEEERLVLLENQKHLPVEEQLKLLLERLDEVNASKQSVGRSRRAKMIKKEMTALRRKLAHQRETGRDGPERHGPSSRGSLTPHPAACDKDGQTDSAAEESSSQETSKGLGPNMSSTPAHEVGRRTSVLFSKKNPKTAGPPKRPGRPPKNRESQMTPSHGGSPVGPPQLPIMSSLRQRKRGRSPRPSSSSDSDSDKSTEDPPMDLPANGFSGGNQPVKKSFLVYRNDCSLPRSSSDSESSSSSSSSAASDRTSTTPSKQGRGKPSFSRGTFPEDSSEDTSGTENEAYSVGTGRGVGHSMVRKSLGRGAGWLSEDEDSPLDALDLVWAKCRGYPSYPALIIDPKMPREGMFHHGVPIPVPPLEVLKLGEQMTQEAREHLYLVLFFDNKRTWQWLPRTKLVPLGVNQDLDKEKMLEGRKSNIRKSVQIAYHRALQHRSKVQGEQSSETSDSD
In short: as §1

[8] = molecular target: T8, ~100 representative kinases (Homo sapiens, UniProt P68400); settings: Protein CK2A1; average of three replicates
T8 construct: Recombinant protein kinase domains with a concentration of 2 μM
T8 sequence (P68400 whole entry, the tested form may be a part): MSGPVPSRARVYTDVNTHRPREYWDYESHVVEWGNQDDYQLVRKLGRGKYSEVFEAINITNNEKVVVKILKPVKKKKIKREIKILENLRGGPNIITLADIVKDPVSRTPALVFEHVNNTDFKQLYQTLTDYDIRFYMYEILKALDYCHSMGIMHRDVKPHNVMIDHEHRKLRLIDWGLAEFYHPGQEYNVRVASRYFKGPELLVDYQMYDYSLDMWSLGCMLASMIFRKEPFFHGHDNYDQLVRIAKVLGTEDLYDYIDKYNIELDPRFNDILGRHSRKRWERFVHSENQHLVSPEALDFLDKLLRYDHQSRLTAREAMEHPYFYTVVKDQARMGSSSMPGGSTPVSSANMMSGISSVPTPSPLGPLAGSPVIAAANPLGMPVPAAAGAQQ
In short: as §1

[9] = molecular target: T9, ~100 representative kinases (Homo sapiens, UniProt Q13557); settings: Protein CAMK2D; average of three replicates
T9 construct: Recombinant protein kinase domains with a concentration of 2 μM
T9 sequence (Q13557 whole entry, the tested form may be a part): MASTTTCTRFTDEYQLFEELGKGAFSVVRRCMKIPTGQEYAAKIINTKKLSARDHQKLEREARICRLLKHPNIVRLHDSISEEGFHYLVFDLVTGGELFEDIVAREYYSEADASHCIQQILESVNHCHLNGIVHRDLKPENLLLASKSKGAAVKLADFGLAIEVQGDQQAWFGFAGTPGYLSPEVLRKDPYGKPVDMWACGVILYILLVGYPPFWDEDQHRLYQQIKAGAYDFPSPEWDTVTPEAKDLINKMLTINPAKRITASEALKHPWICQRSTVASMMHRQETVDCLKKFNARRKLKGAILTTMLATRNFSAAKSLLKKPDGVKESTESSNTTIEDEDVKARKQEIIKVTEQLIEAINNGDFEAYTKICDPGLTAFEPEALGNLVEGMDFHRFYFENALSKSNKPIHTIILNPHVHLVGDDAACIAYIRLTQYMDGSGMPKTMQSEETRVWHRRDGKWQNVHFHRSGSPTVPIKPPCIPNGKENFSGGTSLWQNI
In short: as §1

O=C(Nc1cccc(-c2c[nH]c3ncnc(N4CCOCC4)c23)c1)C1(C(=O)Nc2ccc(F)c(Cl)c2)CC1 [Compound 18]
dTm [1]: 7.28 K | dTm [2]: 6.93 K | dTm [3]: 0.11 K | dTm [4]: 4.93 K | dTm [5]: 9.62 K | dTm [6]: 1.94 K | dTm [7]: 1.47 K | dTm [8]: -0.75 K | dTm [9]: 0.66 K

O=C(Nc1cccc(-c2c[nH]c3ncnc(N4CCOCC4)c23)c1)C1(C(=O)Nc2cc(Br)c(F)cc2F)CC1 [Compound 25]
dTm [1]: 0.00 K | dTm [2]: 3.29 K | dTm [3]: -0.0637 K | dTm [4]: 1.14 K | dTm [5]: 1.43 K | dTm [6]: 1.97 K | dTm [7]: 1.93 K | dTm [8]: -3.68 K | dTm [9]: 1.32 K

Cn1cc(-c2c[nH]c3ncnc(N4CCOCC4)c23)cc1C#N [PFE-360]
dTm [1]: 4.43 K | dTm [2]: 0.78 K | dTm [3]: 0.55 K | dTm [4]: 0.68 K | dTm [5]: 5.50 K | dTm [6]: 0.0126 K | dTm [7]: -1.30 K | dTm [8]: 0.25 K | dTm [9]: 0.51 K

O=C(Nc1cccc(-c2c[nH]c3ncnc(N4CCOCC4)c23)c1)c1cccn(-c2ccc(F)cc2)c1=O [Compound 4]
dTm [1]: 8.52 K | dTm [2]: 6.45 K | dTm [3]: -0.49 K | dTm [4]: 6.09 K | dTm [5]: 5.10 K | dTm [6]: 2.61 K | dTm [7]: -1.48 K | dTm [8]: 1.35 K | dTm [9]: -0.31 K

Cc1ccc(C(=O)Nc2ccc(CN3CCN(C)CC3)c(C(F)(F)F)c2)cc1C#Cc1c[nH]c2ncnc(N3CCOCC3)c12 [Compound 1]
dTm [1]: 6.48 K | dTm [2]: 3.82 K | dTm [3]: 0.68 K | dTm [4]: 3.44 K | dTm [5]: 1.72 K | dTm [6]: 4.12 K | dTm [7]: -0.28 K | dTm [8]: 2.53 K | dTm [9]: 0.30 K

O=C(Nc1ccc(F)cc1)C1(C(=O)Nc2cccc(-c3c[nH]c4ncnc(N5CCOCC5)c34)c2)CC1 [Compound 2]
dTm [1]: 8.51 K | dTm [2]: 7.20 K | dTm [3]: -0.20 K | dTm [4]: 6.37 K | dTm [5]: 6.47 K | dTm [6]: 2.10 K | dTm [7]: 0.13 K | dTm [8]: 0.00 K | dTm [9]: 0.07 K

Cc1cc(NC(=O)C2(C(=O)Nc3ccc(F)cc3)CC2)cc(-c2c[nH]c3ncnc(N4CCOCC4)c23)c1 [Compound 6]
dTm [1]: 7.27 K | dTm [2]: 4.17 K | dTm [3]: 0.01 K | dTm [4]: 3.21 K | dTm [5]: 3.83 K | dTm [6]: 2.49 K | dTm [7]: 0.87 K | dTm [8]: 0.12 K | dTm [9]: 0.64 K

O=C(Nc1cccc(-c2c[nH]c3ncnc(N4CCOCC4)c23)c1)C1(C(=O)Nc2ccc(F)c(Br)c2F)CC1 [Compound 26]
dTm [1]: 5.97 K | dTm [2]: 3.48 K | dTm [3]: -0.03 K | dTm [4]: 2.30 K | dTm [5]: 7.56 K | dTm [6]: 2.01 K | dTm [7]: 1.97 K | dTm [8]: -1.70 K | dTm [9]: 1.25 K
